From patent publication US8703825B2, “Compounds, use thereof as medicaments, and method of preparation thereof” (Universite de Lorraine, priority 2008, dated 2014)
Converted amounts (≈) assume the structure as drawn. “Also recorded” adds a separate entry of the source. Where two headings read alike, the source gives them in different places.

Experiments:
Type in all cases: cell-based
[1] = test system: Gram-positive and Gram-negative bacteria (reference strains and clinical isolates); test: Antibacterial activity overall (MIC determination); conditions: summary of MIC results
Text: (§1) According to the joint recommendations: • of the “Comite de l′Antibiogramme de la Société Française de Microbiologie” (Antibiogram Committee of the French Society of Microbiology) (CA-SFM) [CA-SFM. Communique 2007 (Edition of January 2007). http://www.sfm.asso.fr] and, • of the “Clinical and Laboratory Standards Institute” (CLSI, formerly “National Committee for Clinical Laboratory Standards” or NCCLS) [NCCLS. 2003. Methods for dilution antimicrobial susceptibility tests for bacteria that grow aerobically; approved standard M7-A6, 6th ed. National Committee for Clinical Laboratory Standards, Wayne, Pa., USA.], five reference bacterial strains were used for the study: Escherichia coli ATCC 25922, Pseudomonas aeruginosa ATCC 27853, Staphylococcus aureus ATCC 25923 & ATCC 29213 and Enterococcus faecalis ATCC 29212.
The study also included 5 clinical isolates, obtained from rectal samples and/or from haemoculture: • […] E. coli (EcR1), • methicillin-resistant S. aureus (mecA gene) (SaR1), • vancomycin-resistant E. faecium (vanB gene) (EfR1), • E. faecalis resistant to teicoplanin and to vancomycin (vanA gene) (EfR2), and • P. aeruginosa overexpressing an efflux pump (PaRl).
(§2) Procedure for determining the Minimum Inhibitory Concentration (MIC)
(§3) The minimum inhibitory concentrations (MIC) were determined by the standardized method of microdilution in liquid medium (96-well microplate, U-shaped bottom, Greiner), in Mueller-Hinton broth, with a final inoculum of 10^5-10^6 CFU/mL, depending on the bacterial species, in accordance with the recommendations of the CLSI.
(§4) For the determination of MIC, bacterial suspensions are prepared from an isolated colony, taken from a Mueller-Hinton agar, taken up in 5 mL of Mueller-Hinton broth. After 24 h of growth, the bacterial suspensions are diluted in sterile distilled water in order to obtain an inoculum of 10^5-10^6 CFU/mL. The purity of the bacterial suspensions is tested by isolation on agar and Gram staining.
(§5) The results are the mean value of 4 independent experiments.

[2] = test system: Staphylococcus aureus ATCC 25923; test: MIC by microdilution in liquid medium (CLSI / CA-SFM); conditions: S. aureus ATCC 25923; HaCaT cell lines, 24 h exposure
[3] = test system: HaCaT cells (human keratinocytes); test: Cellular viability test (MTT test); conditions: read-out: IC50 viability test (with MTT)
Text: (§6) The eukaryotic cells used in our study are HaCaT cells (human keratinocytes), which were kindly supplied by the Pierre Fabre Institute (Toulouse, France); and MRC-5 cells (human embryonic fibroblasts), which were obtained from the company BioMérieux (Lyons, France). These cells are cultivated in DMEM (“Dulbecco's modified Eagle's medium”, Invitrogen 61965) for the HaCaT cells, and MEM (“modified Eagle's medium”, Invitrogen 41090); 10% of fetal calf serum (FCS, Invitrogen, 10270, Batch 40Q5150K) in a humid chamber at 37° C., under 5% CO2. The HaCaT and MRC-5 cells were seeded at 10^4 cells/well in 96-well plates (Sarstedt 831835). After 48 h of growth, the culture medium is withdrawn and replaced with the various “test” solutions (volume=100 μL). After contact time of 24, 48 and/or 168 H,the viability or cytotoxicity tests are carried out.
(§7) a) Cellular Viability Tests (MTT Test)
(§8) In order to evaluate the effect of the various compounds tested on the viability of HaCaT and MRC-5 cells, the MTT technique (3-[4,5-dimethylthiazol-2-yl]-2,5-diphenyltetrazolium bromide; MTT, Aldrich, 135038), described by Mosmann [Mosmann T. Rapid colorimetric assay for cellular growth and survival: application to proliferation and cytotoxicity assays. J Immunol Methods. 1983; 65: 55-63] and modified by Grare et al. [Grare M, Mourer M, Fontanay S, Regnouf-de-Vains J B, Finance C, Duval R E. In vitro activity of para-guanidinoethylcalix[4]arene against susceptible and antibiotic-resistant Gram-negative and Gram-positive bacteria. J Antimicrob Chemother. 2007; 60: 575-81], was used.
(§9) It is based on the reduction of yellow tetrazolium salts to purple crystals of formazan, mainly by mitochondrial dehydrogenases. The quantity of formazan formed is proportional to the number of live cells. After the contact times of 24, 48 and/or 168 h with the different concentrations of the test molecules, 10 nI, of MTT (at 5 mg/mL) is added to each well and the plates are placed at 37° C. After incubation for 4 H,the insoluble crystals of formazan that have formed are dissolved by adding 100 μL SDS to each well. The absorbance is measured at 540 nm with a reference wavelength at 690 nm, using an ELISA plate reader (Multiskan E X, Thermo Electron Corporation, France). The results are the mean of the values obtained for 8 wells per concentration and per unit time. Each experiment was carried out 3 times.

[4] = test system: MRC-5 cells (human embryonic fibroblasts); test: Cellular viability test (MTT test); conditions: read-out: IC50 viability test (with MTT)
Text: as §6, §7, §8, §9

[5] = test system: Pseudomonas aeruginosa ATCC 27853; test: MIC by microdilution in liquid medium (CLSI / CA-SFM)
Text: as §1
(§10) The bacteria are cultivated either on Mueller-Hinton agar (Difco, 225250), or in Mueller-Hinton broth (Difco, 275730), at 35° C. [Grare M, Mourer M, Fontanay S, Regnouf-de-Vains J B, Finance C, Duval R E. In vitro activity of para-guanidinoethylcalix[4]arene against susceptible and antibiotic-resistant Gram-negative and Gram-positive bacteria. J. Antimicrob Chemother. 2007; 60: 575-81].
(§11) The various molecules tested were prepared in the form of aqueous solution at 10^−2 mol/L. The solutions used for the biological tests are freshly prepared, and stored for a week at most, at 4° C. The solutions are filtered through a filter with pores of 0.22 μm (Millex®GP; 0.22 μm; Millipore; France) before each test.
as §2, §3, §4, §5

[6] = test system: Escherichia coli ATCC 25922; test: as above; conditions: Escherichia coli
Text: as §1, §10, §11, §2, §3, §4, §5

[7] = test system: Staphylococcus aureus ATCC 29213; test: as above; conditions: for Selectivity index (SI=IC50/MIC): S. aureus ATCC 29213, HaCaT cell lines, 24 h exposure; for MIC: Staphylococcus aureus
Text: as §1, §10, §11, §2, §3, §4, §5

[8] = test system: Enterococcus faecalis ATCC 29212; test: as above
Text: as §1, §10, §11, §2, §3, §4, §5

[9] = ATCC27853, P. aeruginosa ATCC 27853, reference strain, read-out: MIC
[10] = ATCC25922, E. coli ATCC 25922, reference strain, read-out: MIC
[11] = ATCC29213, S. aureus ATCC 29213, reference strain, read-out: MIC
[12] = ATCC29212, E. faecalis ATCC 29212, reference strain, read-out: MIC

SMILES	antibacterial activity (in words) [1]	Selectivity index (SI=IC50/MIC) [2]	IC50 ([3]; 24 h) [µg/mL]	IC50 ([3]; 48 h) [µg/mL]	IC50 ([3]; 168 h) [µg/mL]	IC50 ([4]; MRC5, MRC-5, 24 h) [µg/mL]	IC50 ([4]; MRC5, MRC-5, 48 h) [µg/mL]	IC50 ([4]; MRC5, MRC-5, 168 h) [µg/mL]	MIC [5, 9] [µg/mL]	MIC [6, 10] [µg/mL]	Selectivity index (SI=IC50/MIC) [7]	MIC [7, 11] [µg/mL]	MIC [8, 12] [µg/mL]	IC50 ([4]; MRC5, 24 h) [µg/mL]	IC50 ([4]; MRC5, 48 h) [µg/mL]	IC50 ([4]; MRC5, 168 h) [µg/mL]	MIC ([5]; ATCC27853) [µg/mL]	MIC ([6]; ATCC25922) [µg/mL]	MIC ([7]; ATCC29213) [µg/mL]	MIC ([8]; ATCC29212) [µg/mL]
[H]/N=C(\N/C(=N/[H])NCCCCCCNC(=N)NC(=N)Nc1ccc(Cl)cc1)Nc1ccc(Cl)cc1 [CHX, chlorhexidine]	broad-spectrum antibacterial activity	32-64	8 to 16 (≈ 15.8 to 31.7 µM)	4 to 8 (≈ 7.91 to 15.8 µM)	2 to 4 (≈ 3.96 to 7.91 µM)	16 to 32 (≈ 31.7 to 63.3 µM)	8 to 16 (≈ 15.8 to 31.7 µM)	1 to 2 (≈ 1.98 to 3.96 µM)	8 (≈ 15.8 µM)	0.25 (≈ 0.495 µM)	32-64	0.5 (≈ 0.989 µM)	2 (≈ 3.96 µM)	–	–	–	–	–	–	–
N=C(N)c1ccc(OCCCCCCOc2ccc(C(=N)N)cc2)cc1 [HX, hexamidine]	–	8-16	32 to 64 (≈ 90.3 to 181 µM)	16 to 32 (≈ 45.1 to 90.3 µM)	4 to 8 (≈ 11.3 to 22.6 µM)	–	–	–	–	–	≧32	–	–	32 to 64 (≈ 90.3 to 181 µM)	16 to 32 (≈ 45.1 to 90.3 µM)	4 to 8 (≈ 11.3 to 22.6 µM)	32 (≈ 90.3 µM)	8 (≈ 22.6 µM)	< 1	2 (≈ 5.64 µM)
N=C(N)NCCc1ccc(OCCCCCCOc2ccc(CCNC(=N)N)cc2)cc1 [compound 6, 1,6-bis(4-(2-guanidinoethyl)phenoxy)hexane]	maintains comparable activity on the clinical isolates; also recorded: better overall than hexamidine and is comparable to that of chlorhexidine	8-16	4 to 8 (≈ 9.08 to 18.2 µM)	4 to 8 (≈ 9.08 to 18.2 µM)	1 to 2 (≈ 2.27 to 4.54 µM)	8 to 16 (≈ 18.2 to 36.3 µM)	4 to 8 (≈ 9.08 to 18.2 µM)	0.5 to 1 (≈ 1.13 to 2.27 µM)	16 (≈ 36.3 µM)	4 (≈ 9.08 µM)	16-32	0.25 (≈ 0.567 µM)	8 (≈ 18.2 µM)	–	–	–	–	–	–	–
